Key:
[1] = test system: α-amylase; assay: Measurement of α-amylase activity with Reagent I (substrate, α-glucosidase, mannitol dehydrogenase, NADH); type: biochemical; conditions: substrate 1 mmol/l; sample serum containing 90 mU/ml and 270 mU/ml; 37° C., 10 minutes; linear after 6 minutes
Procedure: When the substrate and glucosidase as a coupled enzyme are added to a sample such as a body fluid or the like, the reaction proceeds as shown below in the case of the malto-oligo saccharide represented by general formula (I) (hereinafter MeG5 F represented by general formula (IV) is used as a specific example of general formula (I)). [drawing 6]
The thus liberated monosaccharides such as fructose or the like and derivatives thereof are reacted with, for example, mannitol dehydrogenase (MDH) or sorbitol dehydrogenase (SDH) in the presence of NADH thereby to produce […]; by the change in absorbancy, the amount of fructose can be determined. [drawing 7]
Reagent I was prepared by the following formulation.
(§1) 1 mmol/l (final concentration)
(§2) 25 U/ml (final concentration)
40 U/ml (final concentration)
NADH 0.16 mmol/l (final concentration)
(§3) 100 mmol/l (final concentration)
100 mmol/1 (final concentration) To 800 μl of Reagent I described above was added 100 μl of a sample serum containing 90 mU/ml and 270 mU/ml, respectively. While incubating at 37° C. for 10 minutes, change in absorbancy was measured at 340 nm.
Measurement was performed in a similar manner except that 100 mg/ml of glucose was further added to each sample serum.

[2] = test system: α-amylase; assay: Measurement of α-amylase activity with Reagent II (substrate, α-glucosidase, inositol dehydrogenase, NAD); type: biochemical; conditions: substrate 1 mmol/l; sample serum containing 55 mU/ml and 220 mU/ml; 37° C., 10 minutes; linear after 4 minutes
Procedure: On the other hand, in the case of using the malto-oligo saccharide represented by general formula (V), when the substrate and glucosidase as a coupled enzyme are added to a sample such as a body fluid or the like, the reaction proceeds as shown below (hereinafter G5 I represented by general formula (VI) is used as a specific example of general formula (V)). [drawing 8]
The thus liberated inositol or derivatives thereof are reacted with inositol dehydrogenase (IDH) in the presence of NAD thereby to produce NADH; by the change in absorbancy, the amount of inositol can be determined. [drawing 9]
Reagent II was prepared by the following formulation.
as §1, §2
40 U/ml (final concentration
NAD 40 mmol/l (final concentration)
as §3
To 800 μl of Reagent II described above was added 100 μl of a sample serum containing 55 mU/ml and 220 mU/ml, respectively. While incubating at 37° C. for 10 minutes, change in absorbancy was measured at 340 nm.
Measurement was performed in a similar manner as in Example 5 except that 100 mg/ml of glucose was further added to each sample serum.

Row | SMILES | change in absorbancy at 340 nm (FIG. 1) [1] | change in absorbancy at 340 nm (FIG. 2) [2]
1 | COC[C@H]1O[C@H](O[C@H]2[C@H](O)[C@@H](O)[C@@H](O[C@H]3[C@H](O)[C@@H](O)[C@@H](O[C@H]4[C@H](O)[C@@H](O)[C@@H](O[C@H]5[C@H](O)[C@@H](O)[C@@H](O[C@]6(CO)O[C@H](CO)[C@@H](O)[C@@H]6O)O[C@@H]5CO)O[C@@H]4CO)O[C@@H]3CO)O[C@@H]2CO)[C@H](O)[C@@H](O)[C@@H]1OC [MeG5 F] | good linear relationship was obtained in any concentration after 6 minutes | 
2 | OC[C@H]1O[C@H](O[C@H]2[C@H](O)[C@@H](O)[C@@H](O[C@H]3[C@H](O)[C@@H](O)[C@@H](O[C@H]4[C@H](O)[C@@H](O)[C@@H](O[C@H]5[C@H](O)[C@@H](O)[C@@H](OC6C(O)C(O)C(O)C(O)C6O)O[C@@H]5CO)O[C@@H]4CO)O[C@@H]3CO)O[C@@H]2CO)[C@H](O)[C@@H](O)[C@@H]1O (some centres unmarked) [G5 I] |  | good linear relationship was obtained in any concentration after 4 minutes
